For the experiment, the system named is MDA-MB-468 breast. Briefly: NCI anticancer screen, dose series, 48 h.

Several values for one entry are separate records, joined by “and”; a condition that tells them apart may be missing. Equal entries are not always repeated.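 Exposure lasted 48 hours, with cells grown in 96-well plates and compounds tested at five concentrations. The concentration for 50% growth inhibition is given as GI50. Definition used: TGI = concentration required for complete inhibition of growth.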 Bounds are passed on as bounds.

Take `COc1cccc(-c2nc3cc(NC(=O)c4ccc(Cl)c(C#N)c4)ccc3o2)c1`: the GI50 is 1.6 µM and the TGI came out at 3.44 µM.
On to `Cn1ncc(-c2ccc3c(=O)[nH]nc(CN)c3c2)c1-c1c(F)c(Cl)cc(OC2CC2)c1C#N`, for which the GI50 was 11.7 µM and 10.2 µM; the TGI was 24.8 µM and 22.5 µM.
As to `N#C[Se]Cc1cc(-c2ccccc2)n(-c2ccc(S(N)(=O)=O)cc2)n1`, the GI50 is 1.59 µM and the TGI was found to be 3.47 µM.
As for `CC(CO)Nc1cc(-c2[nH]c3cccnc3c2-c2ccc(F)cc2)ccn1` (configuration not stated), the GI50 was 6.74 µM and the TGI is > 25 µM.
On to `O=C(Nc1cccc(Cl)c1)Nn1cnnc1`, for which the GI50 is > 50 µM and the TGI is > 50 µM.
For the compound `CC1=C([Se]CC(OC(=O)CC[Se]c2ccccc2)C(=O)NC(C)(C)C)C(=O)c2ccccc2C1=O` (configuration not stated), the GI50 is 0.509 µM and the TGI came to 2.06 µM.
For the compound `CCCN1C(=O)NC(=O)C(CC)(N2C(=O)c3c(F)c(F)c(F)c(F)c3C2=O)C1=O` (configuration not stated), the GI50 is 1.54 µM and the TGI amounted to 3.93 µM.
For `C=C1CCC2C3(C)COC(C)(C)OC3CCC2(C)C1C/C=C1/C(=O)OCC1OC(C)=O` (configuration not stated) the same measures were 1.44 µM and 3.06 µM.
On to `CCSC1=NC2C(N(CC)C(=O)N2CC)N1/N=C/C=C/c1ccccc1[N+](=O)[O-]` (configuration not stated), for which the GI50 is 0.1 µM.
For the compound `c1ccc(-c2nc(-c3ccccn3)nc(-c3ccccn3)n2)nc1`, the GI50 was 30.4 µM and the TGI was 99.1 µM.
`CCN1C(=O)N(CC)C2C1NN=c1s/c(=C\c3ccc(Cl)cc3Cl)c(=O)n12` (configuration not stated): the GI50 is 0.0417 µM and the TGI turned out to be 19.4 µM.
For `CCOc1ccccc1CCN=C1NC(=O)/C(=C/c2ccc3ncccc3c2)S1` the same measures were 1.16 µM and > 16.9 µM.
Regarding `CCCCN(CCCC)Cc1cc(Nc2ccnc3cc(Cl)ccc23)ccc1O`, the GI50 is 4.94 µM and the TGI was > 100 µM.
`O=C(NCC1CC1)c1ccc(-c2cccc(C(=O)NC3CC3)c2)cc1`: the GI50 is > 25 µM and the TGI was > 25 µM.
`O=C(O)c1nc(NCc2nc3cc(Cl)ccc3o2)n[nH]1`: the GI50 was > 100 µM and the TGI was > 100 µM.
Turning to `O=C1/C(=C/c2ccc([N+](=O)[O-])cc2)CN(C(=O)CCN2CCC(=NO)CC2)C/C1=C\c1ccc([N+](=O)[O-])cc1`, the GI50 was 1.06 µM and the TGI stood at 3.61 µM.
Consider `Nc1nc2ccc(-c3nc4ccc5[nH]ncc5c4c4c3CCC4)cc2s1`, for which the GI50 was 0.182 µM and the TGI is 4.36 µM.
For `CC1=C2C(=C[C@@](C)(CO)[C@@H]2OC(=O)N(C)CCN(C)C(=O)OC(C)(C)C)C(=O)[C@](C)(O)C12CC2` the same measures were 1.1 µM and 3.8 µM.
As to `CCc1c2c(nc3ccc(OCc4ccc(B(O)O)cc4)cc13)-c1cc3c(c(=O)n1C2)COC(=O)[C@]3(O)CC`, the GI50 is < 0.01 µM and the TGI was 0.0355 µM.
With `O=C1OCC2=C1C(c1cccc(F)c1)c1cc3c(cc1N2CCO)OCO3` (configuration not stated), the GI50 is 1.12 µM and the TGI was > 50 µM.
For `Nc1ncn([C@@H]2S[C@H](CO)[C@@H](O)[C@@H]2F)c(=O)n1`, in that order: > 100 µM and > 100 µM.
For the compound `COc1ccc2c(c1)C(=O)/C(=C/c1cccc(OCC(=O)c3ccccc3)c1)CC2`, the GI50 is 2.68 µM and the TGI was found to be 74.2 µM.
For `Cc1c2cnccc2c(C)c2c1c1cc(C#N)ccc1n2C`, in that order: 0.228 µM and 0.741 µM.
For `COc1cc(/C=C/C(=O)/C=C/c2cc(OC)c3c(c2)OCO3)cc2c1OCO2` the same measures were 3.46 µM and 28.3 µM.
For the compound `Cc1ccc2cnc(N)c(C#Cc3cc(C(=O)Nc4ccc(CN5CCN(C)CC5)c(C(F)(F)F)c4)cnc3C)c2c1`, the GI50 was 0.932 µM and the TGI stood at 2.08 µM.
For `CCOC(=O)Oc1c(OC)cc(C(=O)c2ccc(OC)c(O)c2OC)cc1OC`, in that order: 2.65 µM and > 100 µM.
Consider `CN1CCC(CNc2cc(C3(C(=O)Nc4cc(C(=O)Nc5ccc(Cl)c(C(F)(F)F)c5)ccc4F)CC3)ncn2)CC1`, for which the GI50 is 1.83 µM and the TGI worked out at 4.41 µM.
For `O=S(=O)(Nc1ccc(Br)cc1)c1ccc(-c2cnc(C3CC3)o2)cc1`, in that order: 1.13 µM and 7.28 µM.
For the compound `COc1cc(C)ccc1C(=O)c1ccc(C)cc1OC`, the GI50 was 1.39 µM and the TGI was > 100 µM.

The values above are taken from PubChem BioAssay (NCI).
